Laboratory results reported in patent US8906939B2, “3-cyano-4-(4-tetrahydropyran-phenyl)-pyridin-2-one derivatives” (Janssen Pharmaceuticals, Inc., priority 2007, dated 2014).

Key:
human mGluR2 receptor = target: T1, human mGluR2 receptor (Homo sapiens, UniProt Q14416); experiment: [35S]GTPγS binding assay, mGluR2 positive allosteric modulation (GTPγS-PAM); format: biochemical; conditions: membranes from CHO cells transfected with human mGluR2; in presence of glutamate at EC25 concentration; averages of duplicate values of 11-concentration response curves; read-out: GTPgS - hR2 PAM pEC50 (converted)
T1 construct: expressed in transfected cells; host or cells: CHO cells (membrane preparation)
T1 sequence (Q14416 19-872): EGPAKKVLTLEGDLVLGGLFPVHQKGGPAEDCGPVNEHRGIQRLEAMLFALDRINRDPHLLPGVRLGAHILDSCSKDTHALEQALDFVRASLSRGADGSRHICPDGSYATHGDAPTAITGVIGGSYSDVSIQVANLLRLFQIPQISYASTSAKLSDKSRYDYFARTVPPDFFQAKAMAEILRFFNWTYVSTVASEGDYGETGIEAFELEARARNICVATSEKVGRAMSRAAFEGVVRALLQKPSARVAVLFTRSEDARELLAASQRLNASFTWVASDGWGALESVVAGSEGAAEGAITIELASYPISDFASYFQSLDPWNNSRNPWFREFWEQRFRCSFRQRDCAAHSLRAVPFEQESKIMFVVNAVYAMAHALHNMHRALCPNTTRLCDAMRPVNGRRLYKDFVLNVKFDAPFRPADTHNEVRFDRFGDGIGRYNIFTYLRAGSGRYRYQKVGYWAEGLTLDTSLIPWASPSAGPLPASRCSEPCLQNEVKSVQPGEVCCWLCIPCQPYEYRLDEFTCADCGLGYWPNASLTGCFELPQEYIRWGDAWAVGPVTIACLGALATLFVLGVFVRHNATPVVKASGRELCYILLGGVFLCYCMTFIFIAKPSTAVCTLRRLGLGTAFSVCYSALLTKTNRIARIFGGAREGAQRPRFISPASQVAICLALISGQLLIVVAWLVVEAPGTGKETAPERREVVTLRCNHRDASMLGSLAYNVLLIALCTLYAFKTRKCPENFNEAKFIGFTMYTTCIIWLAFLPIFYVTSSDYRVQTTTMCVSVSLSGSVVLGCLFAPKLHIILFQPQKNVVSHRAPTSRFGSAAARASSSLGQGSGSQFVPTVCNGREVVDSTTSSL
Description: The compounds provided in the present invention are positive allosteric modulators of mGluR2. These compounds appear to potentiate glutamate responses by binding to an allosteric site other than the glutamate binding site. The response of mGluR2 to a concentration of glutamate is increased when compounds of formula (I) are present. Compounds of formula (I) are expected to have their effect substantially at mGluR2 by virtue of their ability to enhance the function of the receptor. The behaviour of positive allosteric modulators tested at mGluR2 using the [^35S]GTPγS binding assay method described below and which is suitable for the identification of such compounds, and more particularly the compounds according to formula (I), are shown in Table 3.
[^35S]GTPγS Binding Assay
The [^35S]GTPγS binding assay is a functional membrane-based assay used to study G-protein coupled receptor (GPCR) function whereby incorporation of a non-hydrolysable form of GTP, [^35S]GTPγS (guanosine 5′-triphosphate, labelled with […] ^35S), is measured. The G-protein […] subunit catalyzes the exchange of guanosine 5′-diphosphate (GDP) by guanosine triphosphate (GTP) and on activation of the GPCR by an agonist, [^35S]GTPγS, becomes incorporated and cannot be cleaved to continue the exchange cycle (Harper (1998) Current Protocols in Pharmacology 2.6.1-10, John Wiley & Sons, Inc.). […] Here we describe the use of the [^35S]GTPγS binding assay using membranes from cells transfected with the human mGluR2 receptor and adapted from Schaffhauser et al ((2003) Molecular Pharmacology 4:798-810) for the detection of the positive allosteric modulation (PAM) properties of the compounds of this invention.
CHO-cells were cultured to pre-confluence and stimulated with 5 mM butyrate for 24 hours, prior to washing in PBS, and then collection by scraping in homogenisation buffer (50 mM Tris-HCl buffer, pH 7.4, 4° C.). Cell lysates were homogenized briefly (15s) using an ultra-turrax homogenizer. The homogenate was centrifuged at 23 500×g for 10 minutes and the supernatant discarded. The pellet was resuspended in 5 mM Tris-HCl, pH 7.4 and centrifuged again (30 000×g, 20 min, 4° C.). The final pellet was resuspended in 50 mM HEPES, pH 7.4 and stored at −80° C. in appropriate aliquots before use. Protein concentration was determined by the Bradford method (Bio-Rad, USA) with bovine serum albumin as standard.
Measurement of mGluR2 positive allosteric modulatory activity of test compounds in membranes containing human mGluR2 was performed using frozen membranes that were thawed and briefly homogenised prior to pre-incubation in 96-well microplates (15 μg/assay well, 30 minutes, 30° C.) in assay buffer (50 mM HEPES pH 7.4, 100 mM NaCl, 3 mM MgCl2, 50 μM GDP, 10 μg/ml saponin,) with increasing concentrations of positive allosteric modulator (from 0.3 nM to 50 μM) and either a minimal pre-determined concentration of glutamate (PAM assay), or no added glutamate. For the PAM assay, membranes were pre-incubated with glutamate at EC25 concentration, i.e. a concentration that gives 25% of the maximal response glutamate, and is in accordance to published data (Pin et al. (1999) Eur. J. Pharmacol. 375:277-294). After addition of [^35S]GTPγS (0.1 nM, f.c.) to achieve a total reaction volume of 200 μl, microplates were shaken briefly and further incubated to allow [^35S]GTPγS incorporation on activation (30 minutes, 30° C.). The reaction was stopped by rapid vacuum filtration over glass-fibre filter plates (Unifilter 96-well GF/B filter plates, Perkin-Elmer, Downers Grove, USA) microplate using a 96-well plate cell harvester (Filtermate, Perkin-Elmer, USA), and then by washing three times with 300 μl of ice-cold wash buffer (Na2PO4.2H2O 10 mM, NaH2PO4.H2O 10 mM, pH=7.4). […]

SMILES	EC50 (human mGluR2 receptor)	melting point
N#Cc1c(-c2ccc(OC3CCOCC3)c(Cl)c2)ccn(CCC2CC2)c1=O [Compound 4, 4-[3-Chloro-4-(tetrahydro-pyran-4-yloxy)-phenyl]-1-(2-cyclopropyl-ethyl)-2-oxo-1,2-dihydro-pyridine-3-carbonitrile]	282 nM	
CC(C)CCn1ccc(-c2ccc(NC3CCOCC3)c(F)c2)c(C#N)c1=O [Compound 11]	398 nM	
CC(C)CCn1ccc(-c2ccc(OC3CCOCC3)c(Cl)c2)c(C#N)c1=O [Compound 5]	162 nM	
CC(C)CCn1ccc(-c2ccc(NC3CCOCC3)c(Cl)c2)c(C#N)c1=O [Compound 12]	316 nM	
N#Cc1c(-c2ccc(NC3CCOCC3)c(F)c2)ccn(CC2CC2)c1=O [Compound 1, 1-Cyclopropylmethyl-4-[3-fluoro-4-(tetrahydro-pyran-4-ylamino)-phenyl]-2-oxo-1,2-dihydro-pyridine-3-carbonitrile]	~1000 nM	249.5 °C
N#Cc1c(-c2ccc(NC3CCOCC3)c(Cl)c2)ccn(CCC2CC2)c1=O [Compound 6]	219 nM	> 300 °C
CCCCn1ccc(-c2ccc(NC3CCOCC3)cc2)c(C#N)c1=O [Compound 8]	2510 nM	195 °C
N#Cc1c(-c2ccc(NC3CCOCC3)c(C(F)(F)F)c2)ccn(CC2CC2)c1=O [Compound 3, 1-Cyclopropylmethyl-2-oxo-4-[4-(tetrahydro-pyran-4-ylamino)-3-trifluoromethyl-phenyl]-1,2-dihydro-pyridine-3-carbonitrile]	1230 nM	
CC(C)CCn1ccc(-c2ccc(NC3CCOCC3)cc2F)c(C#N)c1=O [Compound 10]	1580 nM	
N#Cc1c(-c2ccc(NC3CCOCC3)c(C(F)(F)F)c2)ccn(CCC2CC2)c1=O [Compound 7]	437 nM	
CCCCn1ccc(-c2ccc(OC3CCOCC3)cc2F)c(C#N)c1=O [Compound 9]	631 nM	136 °C
N#Cc1c(-c2ccc(NC3CCOCC3)c(Cl)c2)ccn(CC2CC2)c1=O [Compound 2, 1-Cyclopropylmethyl-4-[3-chloro-4-(tetrahydro-pyran-4-ylamino)-phenyl]-2-oxo-1,2-dihydro-pyridine-3-carbonitrile]	676 nM	
